Species: Rattus norvegicus
Experiment: DrugMatrix - Regimen: Daily Repeat
Type: toxicity, organism-based, Sprague-Dawley
Design: regimen Daily Repeat, gender Male, age 6-8 weeks
Conditions: in vivo, po, route oral GAVAGE, vehicle 100 % WATER; for ABSOLUTE BASOPHIL / ABSOLUTE EOSINOPHIL / ABSOLUTE LYMPHOCYTE / ABSOLUTE MONOCYTE / ABSOLUTE SEGMENTED NEUTROPHIL / BASOPHIL / EOSINOPHIL / ERYTHROCYTE COUNT / HEMATOCRIT / HEMOGLOBIN / LEUKOCYTE COUNT / LYMPHOCYTE / MEAN CORPUSCULAR HEMOGLOBIN / MEAN CORPUSCULAR HEMOGLOBIN CONCENTRATION / MEAN CORPUSCULAR VOLUME / MONOCYTE / NEUTROPHIL / NUCLEATED RED BLOOD CELLS / PLATELET COUNT: tissue Blood; for ALANINE AMINOTRANSFERASE / ALBUMIN / ALKALINE PHOSPHATASE / ASPARTATE AMINOTRANSFERASE / BLOOD UREA NITROGEN / CARBON DIOXIDE / CHLORIDE / CHOLESTEROL / CREATINE PHOSPHOKINASE / CREATININE / GLUCOSE / LACTATE DEHYDROGENASE / LIPASE / PHOSPHORUS / POTASSIUM / SODIUM / TOTAL BILIRUBIN / TOTAL PROTEIN / URIC ACID: tissue Plasma
[1] = 0 mg/kg, 72 h, dose level Control, time 3 day
[2] = 0 mg/kg, 120 h, dose level Control, time 5 day
[3] = 0.07 mg/kg, 72 h, dose level Low, time 3 day

Cc1cc(C(C)(C)C)c(O)c(C)c1CC1=NCCN1 [OXYMETAZOLINE]
ABSOLUTE BASOPHIL [1]: 0 CELLS/uL | ABSOLUTE EOSINOPHIL [1]: 123.17 CELLS/uL | ABSOLUTE LYMPHOCYTE [1]: 12677.83 CELLS/uL | ABSOLUTE MONOCYTE [1]: 66.17 CELLS/uL | ABSOLUTE SEGMENTED NEUTROPHIL [1]: 1149.5 CELLS/uL | BASOPHIL [1]: 0% | EOSINOPHIL [1]: 0.83% | ERYTHROCYTE COUNT [1]: 5.26 x10E6/uL | HEMATOCRIT [1]: 33.07% | HEMOGLOBIN [1]: 13.43 G/DL | LEUKOCYTE COUNT [1]: 14.02 x10E3/uL | LYMPHOCYTE [1]: 90.17% | MEAN CORPUSCULAR HEMOGLOBIN [1]: 25.62 pg | MEAN CORPUSCULAR HEMOGLOBIN CONCENTRATION [1]: 40.65 G/DL | MEAN CORPUSCULAR VOLUME [1]: 63 fL | MONOCYTE [1]: 0.5% | NEUTROPHIL [1]: 8.5% | NUCLEATED RED BLOOD CELLS [1]: 0.17 /100WBC | PLATELET COUNT [1]: 1142.83 x10E3/uL | ALANINE AMINOTRANSFERASE [1]: 45.17 u/L | ALBUMIN [1]: 3.78 G/DL | ALKALINE PHOSPHATASE [1]: 340.17 u/L | ASPARTATE AMINOTRANSFERASE [1]: 77.33 u/L | BLOOD UREA NITROGEN [1]: 14.67 mg/dL | CARBON DIOXIDE [1]: 28.67 mmol/L | CHLORIDE [1]: 101.17 MEQ/L | CHOLESTEROL [1]: 77.67 mg/dL | CREATINE PHOSPHOKINASE [1]: 263.67 u/L | CREATININE [1]: 0.15 mg/dL | GLUCOSE [1]: 169.33 mg/dL | LACTATE DEHYDROGENASE [1]: 230 u/L | LIPASE [1]: 9.67 u/L | PHOSPHORUS [1]: 11.8 mg/dL | POTASSIUM [1]: 5.91 MEQ/L | SODIUM [1]: 142.88 MEQ/L | TOTAL BILIRUBIN [1]: 0.22 mg/dL | TOTAL PROTEIN [1]: 5.7 G/DL | URIC ACID [1]: 1.35 mg/dL | ABSOLUTE BASOPHIL [2]: 0 CELLS/uL | ABSOLUTE EOSINOPHIL [2]: 125 CELLS/uL | ABSOLUTE LYMPHOCYTE [2]: 13809 CELLS/uL | ABSOLUTE MONOCYTE [2]: 351 CELLS/uL | ABSOLUTE SEGMENTED NEUTROPHIL [2]: 1581.67 CELLS/uL | BASOPHIL [2]: 0% | EOSINOPHIL [2]: 0.67% | ERYTHROCYTE COUNT [2]: 5.53 x10E6/uL | HEMATOCRIT [2]: 34.83% | HEMOGLOBIN [2]: 13.9 G/DL | LEUKOCYTE COUNT [2]: 15.87 x10E3/uL | LYMPHOCYTE [2]: 87.5% | MEAN CORPUSCULAR HEMOGLOBIN [2]: 25.25 pg | MEAN CORPUSCULAR HEMOGLOBIN CONCENTRATION [2]: 40.08 G/DL | MEAN CORPUSCULAR VOLUME [2]: 63.05 fL | MONOCYTE [2]: 2.17% | NEUTROPHIL [2]: 9.67% | NUCLEATED RED BLOOD CELLS [2]: 0 /100WBC | PLATELET COUNT [2]: 1044 x10E3/uL | ALANINE AMINOTRANSFERASE [2]: 50.67 u/L | ALBUMIN [2]: 4.33 G/DL | ALKALINE PHOSPHATASE [2]: 395 u/L | ASPARTATE AMINOTRANSFERASE [2]: 86 u/L | BLOOD UREA NITROGEN [2]: 15.33 mg/dL | CARBON DIOXIDE [2]: 29.33 mmol/L | CHLORIDE [2]: 101.5 MEQ/L | CHOLESTEROL [2]: 71.33 mg/dL | CREATINE PHOSPHOKINASE [2]: 323.17 u/L | CREATININE [2]: 0.18 mg/dL | GLUCOSE [2]: 145.67 mg/dL | LACTATE DEHYDROGENASE [2]: 389.5 u/L | LIPASE [2]: 9.83 u/L | PHOSPHORUS [2]: 11.35 mg/dL | POTASSIUM [2]: 6.39 MEQ/L | SODIUM [2]: 142.77 MEQ/L | TOTAL BILIRUBIN [2]: 0.18 mg/dL | TOTAL PROTEIN [2]: 6.1 G/DL | URIC ACID [2]: 1.52 mg/dL | ABSOLUTE BASOPHIL [3]: 0 CELLS/uL | ABSOLUTE EOSINOPHIL [3]: 62.33 CELLS/uL | ABSOLUTE LYMPHOCYTE [3]: 13944.33 CELLS/uL | ABSOLUTE MONOCYTE [3]: 0 CELLS/uL | ABSOLUTE SEGMENTED NEUTROPHIL [3]: 1260 CELLS/uL | BASOPHIL [3]: 0% | EOSINOPHIL [3]: 0.33% | ERYTHROCYTE COUNT [3]: 5.43 x10E6/uL | HEMATOCRIT [3]: 34.37% | HEMOGLOBIN [3]: 13.87 G/DL | LEUKOCYTE COUNT [3]: 15.27 x10E3/uL | LYMPHOCYTE [3]: 91.67% | MEAN CORPUSCULAR HEMOGLOBIN [3]: 25.53 pg | MEAN CORPUSCULAR HEMOGLOBIN CONCENTRATION [3]: 40.33 G/DL | MEAN CORPUSCULAR VOLUME [3]: 63.33 fL | MONOCYTE [3]: 0% | NEUTROPHIL [3]: 8% | NUCLEATED RED BLOOD CELLS [3]: 0.33 /100WBC | PLATELET COUNT [3]: 1341.33 x10E3/uL | ALANINE AMINOTRANSFERASE [3]: 49.33 u/L | ALBUMIN [3]: 3.83 G/DL | ALKALINE PHOSPHATASE [3]: 309.33 u/L | ASPARTATE AMINOTRANSFERASE [3]: 74 u/L | BLOOD UREA NITROGEN [3]: 12.33 mg/dL | CARBON DIOXIDE [3]: 33.33 mmol/L | CHLORIDE [3]: 100.33 MEQ/L | CHOLESTEROL [3]: 68.67 mg/dL | CREATINE PHOSPHOKINASE [3]: 205.67 u/L | CREATININE [3]: 0.12 mg/dL | GLUCOSE [3]: 144.67 mg/dL | LACTATE DEHYDROGENASE [3]: 166.67 u/L | LIPASE [3]: 10 u/L | PHOSPHORUS [3]: 10.43 mg/dL | POTASSIUM [3]: 6.84 MEQ/L | SODIUM [3]: 142.8 MEQ/L | TOTAL BILIRUBIN [3]: 0.2 mg/dL | TOTAL PROTEIN [3]: 5.67 G/DL | URIC ACID [3]: 1.37 mg/dL

Source: ChEMBL document CHEMBL3885881, “DrugMatrix”
